Results as given in patent US20230091047A1 (priority 2019, published 2023).
Like-named read-outs stand apart in the source and are kept apart here.

Key:
[1] = in vitro; type: cell-based; settings: human, HepG2 or HepG2.117 cells, ATPlite, mean value
In short: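 Luminescent ATP quantitation served as the viability endpoint following a 3- or 4-day incubation with test compounds.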

[2] = test system: HBV (HepG2.117 cell line, inducibly HBV producing); assay: Anti-HBV activity: intracellular HBV DNA by real-time PCR in HepG2.117 cells after 3 days of treatment; type: cell-based, hepatitis B virus
In short: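 Inducible HBV-producing HepG2.117 line (Tet-off); 3-day exposure to serially diluted compound after induction; real-time PCR of intracellular viral DNA.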

[3] = 3-days incubation (unmarked values)
[4] = Hepatitis B virus, HepG2.117, 72 h, HepG2.117 cells, 3 days of treatment, intracellular HBV DNA by real-time PCR; mean value; read-out: EC50 (μM, mean value)
[5] = 3-days incubation (not marked with *)
[6] = Hepatitis B virus, HepG2.117, 72 h, HepG2.117 cells, intracellular HBV DNA by real-time PCR, 3 days of treatment, mean value; read-out: EC50 (μM, mean value)

SMILES | CC50 at 3 days [1, 3] [µM] | EC50 [2, 4] [µM] | CC50 at 3 days [1, 5] [µM] | EC50 [2, 6] [µM] | CC50 at 4 days ([1]; 4-days incubation (values marked with *)) [µM]
CC(C)Nc1nc2c(c(=O)n1C1CCS(=O)(=O)CC1)CCN(C(=O)c1ccc(Cl)c(Cl)c1)C2 [Compound C120, 4-[7-(3,4-dichlorobenzoyl)-4-oxo-2-[(propan-2-yl)amino]-5,6,7,8-tetrahydropyrido[3,4-d]pyrimidin-3(4H)-yl]-1λ^6-thiane-1,1-dione] | > 50 | 7.36 | – | – | –
CNC(=O)c1ccc(-n2c(NC(C)c3ccccc3OC(F)F)nc3c(c2=O)C[C@@H](C)N(C(=O)c2ccc(Cl)c(Cl)c2)C3)cc1 (stereo partly shown) [Compound C438] | – | – | 31.2 | 0.4 | –
CNC(=O)c1ccc(-n2c(N[C@H](C)c3ccc(C#N)cc3)nc3c(c2=O)C[C@@H](C)N(C(=O)c2ccc(Cl)c(Cl)c2)C3)cc1 (single isomer, unassigned) [Compound C441a] | – | – | > 50 | 0.22 | –
CNC(=O)c1ccc(-n2c(NC(C)C)nc3c(c2=O)C[C@@H](C)N(C(=O)c2ccc(F)c(C(F)F)c2)C3)cc1 [Compound C634] | – | – | > 50 | 0.63 | –
CC(C)Nc1nc2c(c(=O)n1-c1ccnc(Cl)c1)C[C@@H](C)N(C(=O)c1ccc(Cl)c(Cl)c1)C2 [Compound C656] | – | – | > 50 | 0.26 | –
CNC(=O)c1ccc(-n2c(N[C@@H]3CCCC3(C)C)nc3c(c2=O)C[C@@H](C)N(C(=O)c2ccc(Cl)c(Cl)c2)C3)cc1 (single isomer, unassigned) [Compound C318, 4-[(6R)-7-(3,4-dichlorobenzoyl)-2-{[(1*R)-2,2-dimethylcyclopentyl]amino}-6-methyl-4-oxo-5,6,7,8-tetrahydropyrido[3,4-d]pyrimidin-3(4H)-yl]-N-methylbenzamide] | 23.2 | 0.68 | – | – | –
CNC(=O)c1cc(Cl)c(-n2c(NC(C)C)nc3c(c2=O)C[C@@H](C)N(C(=O)c2ccc(Cl)c(Cl)c2)C3)c(Cl)c1 [Compound C376] | > 50 | 0.09 | – | – | –
CNC(=O)c1ccc(-n2c(NC(C)C)nc3c(c2=O)C[C@@H](C)N(C(=O)c2ccc(Br)c4c2OCCC4)C3)cc1 [Compound C588] | – | – | > 50 | 1.61 | –
CC(C)Nc1nc2c(c(=O)n1-c1ccc(S(C)(=O)=O)cc1)CCN(C(=O)c1ccc3ocnc3c1)C2 [Compound C364] | > 50 | > 7.2 | – | – | –
CC(C)Nc1nc2c(c(=O)n1-c1ccc(C(=O)NCCO)cc1)C[C@@H](C)N(C(=O)c1ccc(Cl)c(Cl)c1)C2 [Compound C204, 4-[(6R)-7-(3,4-dichlorobenzoyl)-6-methyl-4-oxo-2-[(propan-2-yl)amino]-5,6,7,8-tetrahydropyrido[3,4-d]pyrimidin-3(4H)-yl]-N-(2-hydroxyethyl)benzamide] | > 50 | 0.54 | – | – | –
CNC(=O)c1ccc(-n2c(NC(C)C)nc3c(c2=O)C[C@@H](C)N(C(=O)c2cc(F)c(C(F)(F)F)c(F)c2)C3)cc1 [Compound C476] | – | – | > 50 | 0.12 | –
CC(C)Nc1nc2c(c(=O)n1-c1ccc(N3CCCC3CO)cc1)C[C@@H](C)N(C(=O)c1ccc(Cl)c(Cl)c1)C2 (stereo partly drawn) [Compound C215, (6R)-7-(3,4-dichlorobenzoyl)-3-{4-[2-(hydroxymethyl)pyrrolidin-1-yl]phenyl}-6-methyl-2-[(propan-2-yl)amino]-5,6,7,8-tetrahydropyrido[3,4-d]pyrimidin-4(3H)-one] | 31.9 | 0.21 | – | – | –
CNC(=O)c1ccc(-n2c(NCc3ccc4cc[nH]c4c3)nc3c(c2=O)C[C@@H](C)N(C(=O)c2ccc(Cl)c(Cl)c2)C3)cc1 [Compound C325, 4-[(6R)-7-(3,4-dichlorobenzoyl)-2-{[(1H-indol-6-yl)methyl]amino}-6-methyl-4-oxo-5,6,7,8-tetrahydropyrido[3,4-d]pyrimidin-3(4H)-yl]-N-methylbenzamide] | 22.8 | 0.42 | – | – | –
Cc1nnc(-c2ccc(-n3c(NC(C)C)nc4c(c3=O)C[C@@H](C)N(C(=O)c3ccc(Cl)c(Cl)c3)C4)cc2)s1 [Compound C245, (6R)-7-(3,4-dichlorobenzoyl)-6-methyl-3-[4-(5-methyl-1,3,4-thiadiazol-2-yl)phenyl]-2-[(propan-2-yl)amino]-5,6,7,8-tetrahydropyrido[3,4-d]pyrimidin-4(3H)-one] | > 50 | 0.17 | – | – | –
COc1ccc(CNc2nc3c(c(=O)n2C2CCOCC2)CCN(C(=O)c2ccc(Cl)c(Cl)c2)C3)cc1 [Compound C93, 7-(3,4-dichlorobenzoyl)-2-{[(4-methoxyphenyl)methyl]amino}-3-(oxan-4-yl)-5,6,7,8-tetrahydropyrido[3,4-d]pyrimidin-4(3H)-one] | 32 | 1.73 | – | – | –
CC(C)NC(=O)c1ccc(-n2c(NC(C)C)nc3c(c2=O)C[C@@H](C)N(C(=O)c2ccc(Cl)c(Cl)c2)C3)cn1 [Compound C227, 5-[(6R)-7-(3,4-dichlorobenzoyl)-6-methyl-4-oxo-2-[(propan-2-yl)amino]-5,6,7,8-tetrahydropyrido[3,4-d]pyrimidin-3(4H)-yl]-N-(propan-2-yl)pyridine-2-carboxamide] | > 50 | 0.18 | – | – | –

SMILES | CC50 at 3 days [1, 3] [µM] | EC50 [2, 4] [µM] | CC50 at 3 days [1, 5] [µM] | EC50 [2, 6] [µM] | CC50 at 4 days ([1]; 4-days incubation (values marked with *)) [µM]
CNC(=O)c1ccc(-n2c(N[C@H](C)c3ccnn3C)nc3c(c2=O)C[C@@H](C)N(C(=O)c2ccc(Cl)c(Cl)c2)C3)cc1 (single isomer, unassigned) [Compound C372a] | > 50 | 5.42 | – | – | –
CNC(=O)c1ccc(-n2c(NC(C)C)nc3c(c2=O)C[C@@H](C)N(C(=O)c2cn4ccccc4n2)C3)cc1 [Compound C497] | – | – | > 50 | 11.8 | –
COc1ccc(CNc2nc3c(c(=O)[nH]2)CC(c2ccc(F)cc2)N(C(=O)c2ccc(Cl)c(Cl)c2)C3)cc1 (stereo not shown) [Compound C94, 7-(3,4-dichlorobenzoyl)-6-(4-fluorophenyl)-2-{[(4-methoxyphenyl)methyl]amino}-5,6,7,8-tetrahydropyrido[3,4-d]pyrimidin-4(3H)-one] | > 50 | 0.77 | – | – | –
CNC(=O)c1ccc(-n2c(NC(C)C)nc3c(c2=O)C[C@@H](C)N(C(=O)c2cc(Br)c(Cl)cc2OC)C3)cc1 [Compound C523] | – | – | > 50 | 18 | –
CNC(=O)c1ccc(-n2c(NC(C)(C)c3ccccc3)nc3c(c2=O)C[C@@H](C)N(C(=O)c2ccc(Cl)c(Cl)c2)C3)cc1 [Compound C407] | – | – | 18 | 0.15 | –
CC(C)Nc1nc2c(c(=O)n1-c1ccc(S(C)(=O)=O)cc1)C(C)CN(C(=O)c1ccc(Cl)c(Cl)c1)C2 (stereo not shown) [Compound C154, 7-(3,4-dichlorobenzoyl)-3-[4-(methanesulfonyl)phenyl]-5-methyl-2-[(propan-2-yl)amino]-5,6,7,8-tetrahydropyrido[3,4-d]pyrimidin-4(3H)-one] | > 50 | 0.52 | – | – | –
CC(C)Nc1nc2c(c(=O)n1-c1ccc(-c3cnc[nH]3)cc1)C[C@@H](C)N(C(=O)c1ccc(Cl)c(Cl)c1)C2 [Compound C213, (6R)-7-(3,4-dichlorobenzoyl)-3-[4-(1H-imidazol-5-yl)phenyl]-6-methyl-2-[(propan-2-yl)amino]-5,6,7,8-tetrahydropyrido[3,4-d]pyrimidin-4(3H)-one] | > 50 | 0.36 | – | – | –
CNC(=O)c1cc(-n2c(N[C@@H](C)c3ccc(F)cc3)nc3c(c2=O)C[C@@H](C)N(C(=O)c2ccc(Cl)c(Cl)c2)C3)nn1C [Compound C624] | – | – | > 50 | 0.06 | –
COc1ccc(CN(c2nc3c(c(=O)n2-c2ccc(Br)cc2)C[C@@H](C)N(C(=O)c2ccc(Cl)c(Cl)c2)C3)C(C)C)c(OC)c1 [Compound C691] | – | – | > 50 | 2.45 | –
COc1cccc(CNc2nc3c(c(=O)n2-c2ccccc2OC)CCN(C(=O)c2ccc(Cl)c(Cl)c2)C3)c1 [Compound C18, 7-(3,4-dichlorobenzoyl)-3-(2-methoxyphenyl)-2-{[(3-methoxyphenyl)methyl]amino}-5,6,7,8-tetrahydropyrido[3,4-d]pyrimidin-4(3H)-one] | – | 3.27 | – | – | > 50
COc1ccc(CNc2nc3c(c(=O)n2-c2cnccc2C)CCN(C(=O)c2ccc(Cl)c(Cl)c2)C3)cc1 [Compound C113, 7-(3,4-dichlorobenzoyl)-2-{[(4-methoxyphenyl)methyl]amino}-3-(4-methylpyridin-3-yl)-5,6,7,8-tetrahydropyrido[3,4-d]pyrimidin-4(3H)-one] | 19.4 | 0.65 | – | – | –
CNC(=O)c1ccc(-n2c(NC(C)C)nc3c(c2=O)C[C@@H](C)N(C(=O)c2cc4cc(Cl)ccc4s2)C3)cc1 [Compound C579] | – | – | > 50 | 0.12 | –
CNC(=O)c1ncc(-n2c(O)nc3c(c2=O)C[C@@H](C)N(C(=O)c2ccc(Cl)c(Cl)c2)C3)n1C [Compound C626, R-5-(7-(3,4-dichlorobenzoyl)-2-hydroxy-6-methyl-4-oxo-5,6,7,8-tetrahydropyrido[3,4-d]pyrimidin-3(4H)-yl)-N,1-dimethyl-1H-imidazole-2-carboxamide] | – | – | > 50 | > 2.5 | –
CNC(=O)c1ccc(-n2c(NCc3ccc(-c4nc[nH]n4)cc3)nc3c(c2=O)C[C@@H](C)N(C(=O)c2ccc(Cl)c(Cl)c2)C3)cc1 [Compound C468] | – | – | > 50 | 18.8 | –
CNC(=O)c1ccc(-n2c(NC(C)C)nc3c(c2=O)C[C@@H](C)N(C(=O)c2ccc(Br)c(C)c2F)C3)cc1 [Compound C584] | – | – | > 50 | 0.1 | –
CNC(=O)c1ccc(-n2c(N[C@@H](C)c3ccc(C#N)cc3)nc3c(c2=O)C[C@@H](C)N(C(=O)c2ccc(Cl)c(Cl)c2)C3)cc1 (single isomer, unassigned) [Compound C441b] | – | – | > 50 | 2.75 | –
